Where two headings read alike, the source gives them in different places.
Columns and labels:
[1] = target: T1, mouse cGAS (Mus musculus, UniProt Q8C6L5); test: RapidFire mass spectrometry (RF-MS) cGAS enzymatic assay, cGAMP product formation; type: biochemical; details: for kcat / Km: substrate of mouse cGAS, no inhibitor; for Km: allosteric sigmoidal fitting; for inhibition at 12.5 µM: read-out: % inhibition at 12.5 µM; for effect of structural modification on cGAS inhibitory potency: compared with RU.365
T1 construct: recombinant full-length mouse cGAS in reaction buffer; His6-SUMO (N, cleaved yes); made in house; host or cells: E. coli BL21(DE3) RIL
Procedure: The liquid was collected at the well bottom using centrifugation for 30 s at 180×g. […] Plates were centrifuged for 30 s at 180×g to collect all liquid at the bottom of the wells. […] The reaction was stopped by addition of 65 µl of 0.5% (v/v) formic acid per well. The plates were centrifuged for 30 s at 180×g and sealed with a Velocity11 PlateLoc thermal plate sealer.
The solvent used for loading/washing process was an aqueous solution of 5 mM ammonium acetate, pH 10. […] Each sample of approximately 35 µl were aspirated from a 384-well plate and separated using a Graphitic carbon Type D cartridge. After each sample was loaded onto the cartridge it was washed for 4 s at 1.5 ml min^−1 using the aqueous solvent. ATP, GTP and cGAMP were eluted for 5 s using the organic solvent at a flow rate of 1.5 ml min^−1. The cartridge was then re-equilibrated with the aqueous solvent for 5 s at a flow rate of 1.5 ml min^−1. All samples were analyzed using a negative ionization mode in the mass spectrometer, with a gas temperature of 350 °C, nebulizer pressure of 35 psig, gas flow rate of 15 l min^−1. […] The Agilent RapidFire Integrator software was used to calculate the area under the curve (AUC) of the extracted ion counts for each analyte. Data points represent values of product formation. Catalytic rates expressed as percent product formation were calculated using the AUC of cGAMP and using the AUC’s of ATP and GTP to normalize for variations in the capacity of the solid phase extraction column during a screening run, as shown in the following formula: product formation (%) = [(AUCcGAMP × 100)/(AUCcGAMP + ½ AUCATP + ½ AUCGTP)].
To determine the percent inhibition of mouse cGAS the data was normalized against the positive control (column 24) and negative control (column 23). […] The quality of the screen was assessed by Z′ factor[57] calculated as follows: Z′ = 1−[3∗(standard deviation positive control + standard deviation negative control)/(average positive control—average negative control)].

[2] = test system: 45-bp dsDNA; test: DNA intercalation: acridine orange displacement from dsDNA by fluorescence polarization; type: binding; details: Supplementary Table 2; for % intercalation at 30 µM: acridine orange displacement compared to mitoxantrone; for Polarization: compound 30 µM
Procedure: Ten microliters of HEN buffer (10 mM HEPES pH 7.5, 1 mM EDTA pH 7.5, 100 mM NaCl) were dispensed per well using a Thermo Multidrop Combi dispenser (Thermo Scientific). The liquid was collected at the well bottom using centrifugation for 30 s at 180×g. […] The final concentration of compounds in the assay was 30 µM. […] The liquid was collected at the well bottom using centrifugation for 30 s at 180×g. […] The liquid was collected at the well bottom using centrifugation for 30 s at 180 × g and the plates were incubated for 30 min. Mitoxantrone, a known DNA intercalator was used at 50 µM as a positive control, while DMSO alone was used as negative control. FP was measured using a Biotek Synergy Neo plate reader. […] All FP values are expressed in millipolarization (mP) units. The mP values were calculated using the equation mP = 1000 × [(I S−I SB)−(I P−I PB)]/[I S—I SB) + (I P−I PB)], where I S and […] to the parallel and perpendicular emission intensity, respectively, and I SB and I SP corresponds to parallel emission intensity perpendicular emission intensity of the buffer, respectively. The experimental G-factor, defined as G = I S/I P, was set to 1.0 in all experiments.

[3] = Supplementary Table 2, batch of compounds stored in the screening library, read-out: IC50
[4] = Supplementary Table 2, compound 12.5 µM
[5] = Supplementary Table 4, analogs of RU166365, m-cGAS inhibition, read-out: IC50
[6] = Supplementary Table 3, analogs more potent than RU166365, read-out: IC50

T1 sequence (Q8C6L5 whole entry): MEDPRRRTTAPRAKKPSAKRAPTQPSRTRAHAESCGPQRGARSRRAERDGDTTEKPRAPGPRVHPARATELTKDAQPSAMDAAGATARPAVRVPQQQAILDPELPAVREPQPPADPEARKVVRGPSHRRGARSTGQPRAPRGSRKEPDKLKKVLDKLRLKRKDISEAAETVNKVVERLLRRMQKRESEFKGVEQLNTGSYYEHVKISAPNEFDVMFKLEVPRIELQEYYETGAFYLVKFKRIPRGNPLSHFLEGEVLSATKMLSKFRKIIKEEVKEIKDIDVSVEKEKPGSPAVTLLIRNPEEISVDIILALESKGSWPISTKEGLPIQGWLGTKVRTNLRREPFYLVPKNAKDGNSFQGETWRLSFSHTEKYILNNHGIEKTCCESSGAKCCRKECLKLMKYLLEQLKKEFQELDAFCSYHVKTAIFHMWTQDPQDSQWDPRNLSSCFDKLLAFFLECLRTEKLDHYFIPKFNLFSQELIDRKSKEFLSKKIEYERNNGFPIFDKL

**Q.** For `Nc1ncnc2c1ncn2[C@@H]1O[C@H](COP(=O)(O)OP(=O)(O)OP(=O)(O)O)[C@@H](O)[C@H]1O` [ATP], which kcat [1] is on record?
**A.** 0.383 s⁻¹

**Q.** And the Km [1]?
**A.** 86 ± 6.7 µM

**Q.** Which kcat [1] does the source give for `Nc1nc2c(ncn2[C@@H]2O[C@H](COP(=O)(O)OP(=O)(O)OP(=O)(O)O)[C@@H](O)[C@H]2O)c(=O)[nH]1` [GTP] here?
**A.** 0.383 s⁻¹

**Q.** What about the Km [1] of the same compound?
**A.** 96.4 ± 5.1 µM

**Q.** For `Oc1c(Cl)cc(Cl)c(Cl)c1Cc1c(O)c(Cl)cc(Cl)c1Cl` [RU161], which IC50 [1] is on record?
**A.** 390 nM

**Q.** What about the inhibition at 12.5 µM [1] of the same compound?
**A.** 93%

**Q.** And the “% intercalation at 30 µM” value [2]?
**A.** 69.6%

**Q.** And the Polarization [2]?
**A.** 108 mP

**Q.** What does the source list for `COC(=O)C1=C(C)NC(C)=C(C(=O)OC)C1c1ccccc1[N+](=O)[O-]` [RU199]?
**A.** IC50 [1, 3]: 800 nM; inhibition at 12.5 µM [1, 4]: 91%

**Q.** For `O=[N+]([O-])c1cc([As](=O)(O)O)ccc1O` [RU297], which “% intercalation at 30 µM” value [2] is on record?
**A.** -9.8%

**Q.** And the Polarization [2]?
**A.** 271 mP

**Q.** Which IC50 [1, 3] does the source give for `CCN(CC)CCCC(C)Nc1c2ccc(Cl)cc2nc2ccc(OC)cc12` (stereo not drawn) [RU316] here?
**A.** 6220 nM

**Q.** What about the “% inhibition at 12.5 µM” value [1, 4] of the same compound?
**A.** 68%

**Q.** And the Polarization [2]?
**A.** 140 mP

**Q.** What does the source list for `Nc1c2ccccc2nc2ccccc12` [RU431]?
**A.** IC50 [1, 3]: 2830 nM; inhibition at 12.5 µM [1, 4]: 78%; Polarization [2]: 145 mP

**Q.** With `O=C1c2c(O)ccc(O)c2C(=O)c2c(NCCNCCO)ccc(NCCNCCO)c21` [RU627] as the compound, how does the IC50 [1, 3] read?
**A.** 720 nM

**Q.** And the inhibition at 12.5 µM [1, 4]?
**A.** 94%

**Q.** What about the “% intercalation at 30 µM” value [2] of the same compound?
**A.** 102.5%

**Q.** What about the Polarization [2] of the same compound?
**A.** 41 mP

**Q.** Which results are given for `O=C(O)c1cc(O)c2c(c1)[C@@H]([C@H]1c3cc(C(=O)O)cc(O)c3C(=O)c3c(O[C@H]4O[C@H](CO)[C@@H](O)[C@H](O)[C@H]4O)cccc31)c1cccc(O[C@H]3O[C@H](CO)[C@@H](O)[C@H](O)[C@H]3O)c1C2=O` [RU646]?
**A.** IC50 [1, 3]: 8760 nM; inhibition at 12.5 µM [1, 4]: 82%; % intercalation at 30 µM [2]: -13.5%; Polarization [2]: 278 mP

**Q.** Which results are given for `CC[n+]1c(-c2ccccc2)c2cc(N)ccc2c2ccc(N)cc21` [RU662]?
**A.** IC50 [1, 3]: 430 nM; inhibition at 12.5 µM [1, 4]: 97%; % intercalation at 30 µM [2]: 101.9%; Polarization [2]: 42 mP

**Q.** With `O=[N+]([O-])c1ccc(O)c([N+](=O)[O-])c1` [RU803] as the compound, how does the IC50 [1] read?
**A.** 870 nM

**Q.** And the inhibition at 12.5 µM [1]?
**A.** 96%

**Q.** And the “% intercalation at 30 µM” value [2]?
**A.** -4.7%

**Q.** What about the Polarization [2] of the same compound?
**A.** 260 mP

**Q.** With `CCN(CC)CCNc1ccc(CO)c2sc3ccccc3c(=O)c12` [RU869] as the compound, how does the IC50 [1, 3] read?
**A.** 6800 nM

**Q.** And the inhibition at 12.5 µM [1, 4]?
**A.** 66%

**Q.** What about the “% intercalation at 30 µM” value [2] of the same compound?
**A.** 81.2%

**Q.** And the Polarization [2]?
**A.** 85 mP

**Q.** Which results are given for `C[n+]1cc2c3c(ccc2c2ccc4cc5c(cc4c21)OCO5)OCO3` [RU871]?
**A.** IC50 [1, 3]: 3370 nM; inhibition at 12.5 µM [1, 4]: 85%; % intercalation at 30 µM [2]: 95.0%; Polarization [2]: 56 mP

**Q.** `CCCc1c(C)nn(-c2nc3ccccc3[nH]2)c1O` [RU166418] was tested. Which IC50 [1, 5] did it give?
**A.** > 25000 nM

**Q.** For `CC(C)c1ccc2oc3nc(N)c(C(=O)O)cc3c(=O)c2c1` [RU185491], which “% intercalation at 30 µM” value [2] is on record?
**A.** 1.5%

**Q.** What about the Polarization [2] of the same compound?
**A.** 248 mP

**Q.** With `Cc1ccc(-c2cc(O)n(-c3nc4ccccc4[nH]3)n2)cc1` [RU281319] as the compound, how does the IC50 [1, 5] read?
**A.** > 25000 nM

**Q.** How did the IC50 [1, 5] turn out when `Cc1cc(O)n(-c2nc3ccccc3[nH]2)n1` [RU281324] was run?
**A.** > 25000 nM

**Q.** For `COc1ccc2nc(-n3nc(C)c(C4OC(=O)c5ccccc54)c3O)[nH]c2c1` (stereo not drawn) [RU320459], which IC50 [1, 5] is on record?
**A.** 7340 nM

**Q.** For `COc1cccc2nc(-n3nc(C)c(C4OC(=O)c5ccccc54)c3O)[nH]c12` (stereo not drawn) [RU320460], which IC50 [1, 5] is on record?
**A.** 5610 nM

**Q.** How did the IC50 [1, 6] turn out when `Cc1ccc2nc(-n3nc(C)c(C4OC(=O)c5ccccc54)c3O)[nH]c2c1` (stereo not drawn) [RU320461] was run?
**A.** 860 nM

**Q.** What about the “effect of structural modification on cGAS inhibitory potency” value [1] of the same compound?
**A.** increased inhibitory potency

**Q.** `Cc1nn(-c2nc3ccc(Br)cc3[nH]2)c(O)c1C1OC(=O)c2ccccc21` (stereo not drawn) [RU320462] was tested. Which IC50 [1, 6] did it give?
**A.** 640 nM

**Q.** What about the “effect of structural modification on cGAS inhibitory potency” value [1] of the same compound?
**A.** increased inhibitory potency

**Q.** Which IC50 [1, 5] does the source give for `Cc1nn(-c2nc3ccccc3[nH]2)c(O)c1C1OC(=O)c2c(Br)cccc21` (stereo not drawn) [RU320463] here?
**A.** 2760 nM

**Q.** `Cc1nn(-c2nc3ccccc3[nH]2)c(O)c1C1OC(=O)c2ccc(Br)cc21` (stereo not drawn) [RU320464] was tested. Which IC50 [1, 5] did it give?
**A.** 2240 nM

**Q.** Which results are given for `Cc1nn(-c2nc3ccccc3[nH]2)c(O)c1C1NC(=O)c2ccccc21` (stereo not drawn) [RU320465]?
**A.** IC50 [1, 5]: > 25000 nM; effect of structural modification on cGAS inhibitory potency [1]: abolished inhibitory activity
